In patent US20250144067A1, “PERSONALIZED STARVATION THERAPY FOR CANCER” (Faeth Therapeutics, Inc., priority 2021, published 2025):
Structures can show the parent of a compound that is named as a salt. Numbered stars: 1 amine (or outer) side, 2 acyl side, 3 side chain; on linkers, the order of the positions; unused ones are H or OH. Bridge positions count the residues as written; N and C are the ends. Square brackets hold non-standard residues; d marks the D form. Peptide text beside a SMILES is read from it. * marks the point of attachment. pTerphenylCO(4''-OnC5H11) = CCCCCOc1ccc(-c2ccc(-c3ccc(C(=O)*)cc3)cc2)cc1; Orn(4R-OH,5R-OH) = O=C([C@H](C[C@@H](O)[C@@H](O)N[*:3])N[*:1])[*:2]; hTyr(3S-OH,4S-OH) = N[C@H](C(=O)O)[C@H](O)[C@@H](O)c1ccc(O)cc1; Pro(3S-OH,4S-Me) = C[C@H]1CN[C@H](C(=O)O)[C@H]1O; Hyp = O=C(O)[C@@H]1C[C@@H](O)CN1

Columns and labels:
[1] = tested on: NCI-H292 lung cancer cells; test: FDA drug screening, complete media vs cholesterol-free media with simvastatin (TABLE 2); type: cell-based, human; conditions: for Cholesterol-free media + simvastatin (0.04 μM) / Complete Media: NCI-H292 cells
[2] = tested on: NCI-H292 lung cancer cells; test: FDA drug screening, complete media vs cholesterol-free media without statin (TABLE 1); type: cell-based, human
[3] = FDA library drug in cholesterol-free media with simvastatin 0.04 μM
[4] = FDA library drug in complete media
[5] = complete media vs cholesterol-free media + simvastatin (0.04 μM), >0 enhanced anti-cancer activity, about 0 neutral, <0 antagonist
[6] = NCI-H292 cells, cholesterol-free media without statin
[7] = FDA drug library screen, cholesterol-free media with simvastatin 0.04 μM
[8] = complete media minus cholesterol-free media + simvastatin, […]
[9] = complete vs cholesterol-free media, […]
[10] = FDA drug library screen, complete media
[11] = complete media minus cholesterol-free media + simvastatin, >0 enhanced anti-cancer activity, about 0 neutral, <0 antagonist
[12] = Complete minus Cholesterol-free, greater than 0 enhanced anti-cancer activity, about 0 neutral, below 0 antagonist
[13] = NCI-H292 cells, FDA drug library screen, cholesterol-free media without statin
[14] = NCI-H292 cells, FDA drug library screen, complete media
[15] = drug in cholesterol-free media with simvastatin 0.04 μM
[16] = NCI-H292 cells, cholesterol-free media without statin, FDA drug library screen
[17] = NCI-H292 cells, complete media, FDA drug library screen
[18] = complete vs cholesterol-free media, >0 enhanced anti-cancer activity, about 0 neutral, <0 antagonist
[19] = Complete minus Cholesterol-free, >0 enhanced anti-cancer activity, about 0 neutral, <0 antagonist
[20] = cholesterol-free media with simvastatin 0.04 μM, FDA drug library screen (TABLE 2)
[21] = complete media, FDA drug library screen (TABLE 2)
[22] = complete media minus cholesterol-free media + simvastatin (0.04 μM), >0 enhanced anti-cancer activity, about 0 neutral, <0 antagonist
[23] = cholesterol-free media with simvastatin 0.04 μM, cell growth value in FDA drug screen
[24] = complete media, cell growth value in FDA drug screen
[25] = Complete minus Cholesterol-free, greater than 0 enhanced anti-cancer activity, about 0 neutral, below 0 antagonists
[26] = NCI-H292 cells in cholesterol-free media without statin
[27] = NCI-H292 cells in complete media
[28] = Complete minus Cholesterol-free, […]
[29] = complete media minus cholesterol-free media + simvastatin (0.04 μM), […]

## N#Cc1ccc(C(c2ccc(C#N)cc2)n2cncn2)cc1 [Letrozole]
[1]; [3]
  Cholesterol-free media + simvastatin (0.04 μM): 1.67
[1]; [4]
  Complete Media: 1.21
[1]; [5]
  Difference: −0.46
[2]; [6]
  Cholesterol-free: 1.334
[2]; NCI-H292 cells, complete media
  Complete: 1.012
[2]; complete vs cholesterol-free media, greater than 0 enhanced anti-cancer activity, about 0 neutral, below 0 antagonists
  Difference: −0.32

## Oxaliplatin
[1]; [7]
  Cholesterol-free media + simvastatin (0.04 μM): 0.8725
[1]; [8]
  Difference: 0.17
[2]; [6]
  Cholesterol-free: 1.359
[2]; NCI-H292 cells, complete media
  Complete: 0.9211
[2]; [9]
  Difference: −0.44

## CC(=O)Nc1c(I)c(NC(C)=O)c(I)c(C(=O)[O-])c1I.[Na+] [Sodium diatrizoate]
[1]; [7]
  Cholesterol-free media + simvastatin (0.04 μM): 0.8717
[1]; [10]
  Complete Media: 1.037
[1]; [11]
  Difference: 0.16
[2]; [12]
  Difference: −0.08
[2]; [13]
  Cholesterol-free: 1.128
[2]; [14]
  Complete: 1.045

## Cc1ncc([N+](=O)[O-])n1CC(O)CCl (stereo not shown) [Ornidazole]
[1]; [15]
  Cholesterol-free media + simvastatin (0.04 μM): 1.385
[1]; drug in complete media
  Complete Media: 1.209
[1]; [5]
  Difference: −0.18
[2]; [16]
  Cholesterol-free: 0.6543
[2]; [17]
  Complete: 1.082
[2]; [18]
  Difference: 0.43

## C[C@H](CCC(=O)NCCS(=O)(=O)O)[C@H]1CC[C@H]2[C@@H]3CC[C@@H]4C[C@H](O)CC[C@]4(C)[C@H]3C[C@H](O)[C@]12C [Taurodeoxycholic acid (sodium hydrate)]
[1]; [5]
  Difference: −0.45
[2]; [19]
  Difference: −0.23
[2]; [6]
  Cholesterol-free: 1.216
[2]; NCI-H292 cells, complete media
  Complete: 0.9829

## C[C@H](CS)C(=O)N1CCC[C@H]1C(=O)O [Captopril]
[1]; [20]
  Cholesterol-free media + simvastatin (0.04 μM): 0.8354
[1]; [21]
  Complete Media: 0.832
[1]; [22]
  Difference: 0.00
[2]; [19]
  Difference: −0.19
[2]; [6]
  Cholesterol-free: 0.897
[2]; NCI-H292 cells, complete media
  Complete: 0.704

## NC[C@H]1O[C@H](O[C@H]2[C@H](O)[C@@H](O[C@H]3O[C@H](CO)[C@@H](O)[C@H](N)[C@H]3O)[C@H](N)C[C@@H]2N)[C@H](N)C[C@@H]1O [Tobramycin]
[1]; [23]
  Cholesterol-free media + simvastatin (0.04 μM): 0.8625
[1]; [24]
  Complete Media: 0.9069
[1]; [11]
  Difference: 0.04
[2]; [16]
  Cholesterol-free: 1.416
[2]; [17]
  Complete: 1.802
[2]; [18]
  Difference: 0.39

## Nc1ncnc2[nH]cnc12 [Adenine]
[1]; [7]
  Cholesterol-free media + simvastatin (0.04 μM): 1.106
[1]; [10]
  Complete Media: 1.256
[1]; [11]
  Difference: 0.15
[2]; [25]
  Difference: −0.97
[2]; [26]
  Cholesterol-free: 1.858
[2]; [27]
  Complete: 0.8914

## Cc1ncc(CO)c(CO)c1O.Cl [Pyridoxine (hydrochloride)]
[1]; [3]
  Cholesterol-free media + simvastatin (0.04 μM): 1.33
[1]; [4]
  Complete Media: 0.9936
[1]; complete media vs cholesterol-free media + simvastatin (0.04 μM), […]
  Difference: −0.34
[2]; [28]
  Difference: −0.61
[2]; [26]
  Cholesterol-free: 1.496
[2]; [27]
  Complete: 0.8868

## CN1[C@@H]2CC[C@H]1C[C@@H](OC(=O)c1c[nH]c3ccccc13)C2 [Tropisetron (Hydrochloride)]
[1]; [7]
  Cholesterol-free media + simvastatin (0.04 μM): 1.118
[1]; [10]
  Complete Media: 0.9866
[1]; [5]
  Difference: −0.13
[2]; [19]
  Difference: −0.30
[2]; [6]
  Cholesterol-free: 1.166
[2]; NCI-H292 cells, complete media
  Complete: 0.8628

## Metoprolol (Succinate)
[1]; [15]
  Cholesterol-free media + simvastatin (0.04 μM): 1.072
[1]; drug in complete media
  Complete Media: 0.8786
[1]; [5]
  Difference: −0.19
[2]; [19]
  Difference: 0.02
[2]; [16]
  Cholesterol-free: 0.9592
[2]; [17]
  Complete: 0.9837

## CCCCCOc1ccc(-c2ccc(-c3ccc(C(=O)N[C@H]4C[C@@H](O)[C@@H](O)NC(=O)[C@@H]5[C@@H](O)[C@@H](C)CN5C(=O)[C@H]([C@@H](C)O)NC(=O)[C@H]([C@H](O)[C@@H](O)c5ccc(O)cc5)NC(=O)[C@@H]5C[C@@H](O)CN5C(=O)[C@H]([C@@H](C)O)NC4=O)cc3)cc2)cc1 [Anidulafungin] ({pTerphenylCO(4''-OnC5H11)}-[Orn(4R-OH,5R-OH)]T[Hyp][hTyr(3S-OH,4S-OH)]T[Pro(3S-OH,4S-Me)]; lactam 1-C)
[1]; [7]
  Cholesterol-free media + simvastatin (0.04 μM): 1.251
[1]; [29]
  Difference: −1.03
[2]; [28]
  Difference: −0.23
[2]; [6]
  Cholesterol-free: 1.481
[2]; NCI-H292 cells, complete media
  Complete: 1.247

## O=C(O)CCC(=O)c1ccc(-c2ccccc2)cc1 [Fenbufen]
[1]; [23]
  Cholesterol-free media + simvastatin (0.04 μM): 0.8759
[1]; [24]
  Complete Media: 0.8928
[1]; [11]
  Difference: 0.02
[2]; [25]
  Difference: −0.96
[2]; [26]
  Cholesterol-free: 1.772
[2]; [27]
  Complete: 0.811

## COc1ccccc1OCCNCC(O)COc1cccc2[nH]c3ccccc3c12 (stereo not shown) [Carvedilol]
[1]; [3]
  Cholesterol-free media + simvastatin (0.04 μM): 1.448
[1]; [4]
  Complete Media: 0.9665
[1]; [5]
  Difference: −0.48
[2]; [12]
  Difference: −0.18
[2]; [13]
  Cholesterol-free: 1.133
[2]; [14]
  Complete: 0.9579

## CC[C@H]1[C@@H](O)[C@@H]2[C@H](CC[C@]3(C)[C@@H]([C@H](C)CCC(=O)O)CC[C@@H]23)[C@@]2(C)CC[C@@H](O)C[C@@H]12 [Obeticholic acid]
[1]; [7]
  Cholesterol-free media + simvastatin (0.04 μM): 1.258
[1]; [10]
  Complete Media: 1.13
[1]; [5]
  Difference: −0.13
[2]; [16]
  Cholesterol-free: 0.5907
[2]; [17]
  Complete: 0.9124
[2]; [18]
  Difference: 0.32

## C=C1CC[C@@H]2[C@](C)(COC(=O)CCC(=O)O)[C@H](OC(=O)CCC(=O)O)CC[C@@]2(C)[C@@H]1/C=C/C1=CCOC1=O [Dehydroandrographolide succinate]
[1]; cholesterol-free media with simvastatin 0.04 μM, […]
  Cholesterol-free media + simvastatin (0.04 μM): 0.8998
[1]; complete media, […]
  Complete Media: 1.004
[1]; [8]
  Difference: 0.10
[2]; [28]
  Difference: −1.21
[2]; [26]
  Cholesterol-free: 2.195
[2]; [27]
  Complete: 0.9855

## CCOCC(O)COc1ccc(NC(=O)CC[S+](C)C)cc1.Cc1ccc(S(=O)(=O)[O-])cc1 (stereo not shown) [Suplatast (Tosilate)]
[1]; [7]
  Cholesterol-free media + simvastatin (0.04 μM): 2.447
[1]; [29]
  Difference: −0.95
[2]; [16]
  Cholesterol-free: 0.9586
[2]; [17]
  Complete: 1.127
[2]; [9]
  Difference: 0.17

## CC(=O)O[C@H]1C(=O)[C@@]2(C)[C@H]([C@H](OC(=O)c3ccccc3)[C@]3(O)C[C@H](OC(=O)[C@H](O)[C@@H](NC(=O)c4ccccc4)c4ccccc4)C(C)=C1C3(C)C)[C@]1(OC(C)=O)CO[C@@H]1C[C@@H]2O [Paclitaxel]
[1]; [20]
  Cholesterol-free media + simvastatin (0.04 μM): 0.2107
[1]; [21]
  Complete Media: 0.1648
[1]; [22]
  Difference: −0.05
[2]; [19]
  Difference: −0.01
[2]; [16]
  Cholesterol-free: 0.0662
[2]; [17]
  Complete: 0.05705

## CS(=O)(=O)OCCCCOS(C)(=O)=O [Busulfan]
[1]; [3]
  Cholesterol-free media + simvastatin (0.04 μM): 1.936
[1]; [4]
  Complete Media: 1.265
[1]; [5]
  Difference: −0.67
[2]; [19]
  Difference: 0.07
[2]; [16]
  Cholesterol-free: 1.648
[2]; [17]
  Complete: 1.719

## Eprosartan (mesylate)
[1]; [20]
  Cholesterol-free media + simvastatin (0.04 μM): 0.8775
[1]; [21]
  Complete Media: 0.8724
[1]; [22]
  Difference: −0.01
[2]; [25]
  Difference: −0.55
[2]; [26]
  Cholesterol-free: 1.415
[2]; [27]
  Complete: 0.8697

## C[Se]CC[C@H](N)C(=O)O [L-SelenoMethionine]
[1]; [7]
  Cholesterol-free media + simvastatin (0.04 μM): 1.886
[1]; [10]
  Complete Media: 1.795
[1]; [5]
  Difference: −0.09
[2]; [25]
  Difference: −0.92
[2]; [26]
  Cholesterol-free: 2.252
[2]; [27]
  Complete: 1.327
